Experimental data reported in patent US20160081959A1 (Glanbia plc, priority 2014, published 2016).
Like-named read-outs stand apart in the source and are kept apart here.

What was measured:
[1] = Single dose oral pharmacokinetic study in fasted male Sprague Dawley rats (arginine in plasma, LC-MS/MS); format: in vivo
Description: Oral PK was determined in rats for ASI and several comparative compounds.
Test system: Sprague Dawley rats, male. Aged 7-9 weeks at the time of receipt.
Sample size: Study groups—4 groups per study; 5 animals/group.
The test compounds were administered through oral gavage. Oral route of administration is one of the preferred routes of administration in humans.
(§1) Study Group 1: Single dose oral pharmacokinetic study of ResArgin in male Sprague Dawley rats at a dose equivalent to 500 mg of L-Arginine/kg body weight. Male Sprague Dawley Rats aged 8-10 weeks were used for experimentation after a minimum 3 days of acclimatization. Fasted animals were administered ResArgin in a recommended vehicle (0.5% (w/v) Carboxymethylcellulose in sterile water) by oral route with a dose equivalent to 500 mg L-Arginine/kg body weight at dose volume of 10 mL/kg body weight.
Under mild isoflurane anesthesia, blood specimens were collected at time points (0.0 h, 0.16 h, 0.25 h, 0.50 h, 1.00 h, 2.00 h, 4.00 h, 6.00 h) post-dose as mentioned in Table 1 into pre-labeled tubes containing anticoagulant (K2EDTA—2 mg/mL blood) during the next 24 hours. Collected blood specimens were centrifuged at 4000 rpm, 4° C. for 10 minutes and plasma was separated and stored at −80° C. until analysis.
Study Group 2: Single dose oral pharmacokinetic study of L-Arginine in male Sprague Dawley rats at a dose of 500 mg/kg body weight. Male Sprague Dawley Rat aged 8-10 weeks were used for experimentation after a minimum 3 days of acclimatization. Fasted animals were administered L-Arginine in a recommended vehicle (0.5% (w/v) Carboxymethylcellulose in sterile water by oral route with 500 mg/kg body weight at dose volume of 10 mL/kg body weight.
as §1, with “3:” for “1:”, “L-Arginine HCl” for “ResArgin”
Male Sprague Dawley Rats aged 8-10 weeks were used for experimentation after a minimum 3 days of acclimatization.
Bioanalytical method(s) for the determination of arginine in Rat plasma were developed using LC-MS/MS. The developed methods were used for plasma sample analysis. Chromatograms were acquired using Analyst® software version 1.4.2. The concentration of the unknown sample was calculated from the following equation using regression analysis with peak area ratio of standard and ISD vs calibration standards concentration, using weighting factor (1/x^2) in accordance with Equation (1): […]
The pharmacokinetic parameters including Cmax, Tmax, AUC0-t, AUC0-inf, T1/2 and MRTlast of the arginine in rat plasma were determined from the concentration time data by using non-compartmental analysis (Phoenix WinNonlin 6.3, Pharsight Corporation, Princeton, N.J., USA).
Statistical analysis of PK parameters was performed by one way ANOVA followed by Dunnett's Post Test (L-Arginine Base vs ResArgin, L-Arginine HCl, and Arginine Silicate Inositol, respectively).

[2] = test system: vasodilatory response; conditions: in vivo; cited from earlier work
[3] = test system: wound healing; conditions: 17 g/day, after two weeks, cited from earlier work
[4] = test system: wounds; conditions: ingested; mice; cited from earlier work
[5] = Human clinical PK/PD/safety study of Nitrosigine (plasma arginine, serum silicon); format: in vivo
Text: See, Kalman D, Feldman S, Samson A, Krieger D., “A clinical evaluation to determine the safety, pharmacokinetics and pharmacodynamics of an inositol-stabilized arginine silicate dietary supplement in healthy adult males,” The FASEB Journal (April 2014) 28(1 Suppl.): LB418.
Purpose: The purpose of this study was to characterize the PK/PD of Nitrosigine®, an inositol-stabilized arginine silicate dietary supplement.
Type: Prospective, pharmacokinetic (PK)/pharmacodynamic (PD)/safety clinical trial.
Dosing: Nitrosigine® was administered as daily doses of 1,500 mg (3×500 mg tablets).
Visit 2: single dose evaluation (0-6 hrs), 1500 mg—this was also utilized as the first dose of the 14 day study. It is noted in addition that Visit 2 is also the beginning of the 14 day study, during which subjects take product once a day for 14 days.
Visit 3: 14 days later, single dose (0-6 hrs)
PK Measurements: Plasma arginine and serum silicon levels were measured after the first dose on Day 1 and again after a dose taken on Day 14, after 14 days of dosing.

[6] = test system: Nitric oxide (NO) levels; test: Nitric oxide levels by salivary test strips in the human clinical study; format: in vivo
Description: NO was measured using salivary test strips, using a color scale for “Depleted”, “Low”, and “Normal” levels. […] Six subjects who were “Depleted” at Visit 2 increased to “Low” at Visit 3, while no subjects went from “Low” at Visit 2 to “Depleted” at Visit 3. In addition, the Visit 3 treatment after 1 hr gave 3 subjects “Depleted”, 4 subjects “Low”, and 3 subjects “Normal.” This “asymmetric” change pattern was statistically significant (p=0.031).

[7] = test system: blood proteins related to vasodilation and heart health; test: Blood proteins after ASI treatment; conditions: in vivo
[8] = test system: wound healing; test: Example 1: oral ASI, Kirk, et al. wound healing protocol in human volunteers; format: in vivo; conditions: ASI 1500 mg daily, 2 weeks; expected
Description: The Kirk, et al. protocol is used as follows. […] Fifteen volunteers receive a placebo tablet. Fibroplastic wound responses are assessed by inserting a polytetrafluoroethylene catheter subcutaneously into the right deltoid region. Epithelialization is examined by creating a 2×2 cm split thickness wound on the lateral aspect of the upper thigh. Mitogenic response of peripheral blood lymphocytes to concanavalin A, phytohemagglutinin, pokeweed mitogen, and allogeneic stimuli is assayed at the beginning and end of supplementation. Polytetrafluoroethylene catheters were analyzed for alpha-amino nitrogen (assessment of total protein accumulation), hydroxyproline (index of reparative collagen synthesis), and DNA accumulation (index of cellular infiltration).

[9] = test system: wound healing; test: Example 2: topical ASI hydrogel, Vits, et al. ablative laser wound protocol; format: in vivo, human; conditions: expected
Description: Wound 1 (2013) December 30.
The Vits, et al. protocol is used as follows. In 22 healthy men (experimental group, n=11; control group, n=11) wounds are induced by ablative laser on both thighs. Hydrogel (placebo) is applied on one of the two wounds, and Hydrogel (containing ASI) is applied on the wound of the other thigh. Progress in wound healing was documented via planimetry on days 1, 4 and 7 after wound induction. From day 9 onwards wound inspections were performed daily accompanied by a change of the dressing and a new application of the gel.

[10] = test system: muscle soreness, muscle damage, and recovery; test: Example 3: clinical study of muscle soreness, muscle damage and recovery; format: in vivo, human; conditions: ASI 750 mg 2×/day for 14 days with training regimen; expected
Description: Clinical Study to measure muscle soreness, muscle damage, and recovery. Crossover PCT.
Study group: n=16 males exercising <150 mins/week.
Secondary endpoints: NO level, blood pressure, heart rate, leg circumference, patient survey/self-assessment, e.g., visual analog scale (VAS) for pain, intramuscular biopsy.

[11] = arginine in plasma, fasted male Sprague Dawley rats, single oral dose equivalent to 500 mg L-Arginine/kg b.w.
[12] = rat, 500 mg/kg, arginine in plasma, fasted male Sprague Dawley rats, single oral dose equivalent to 500 mg L-Arginine/kg b.w.
[13] = rat, 500 mg/kg, arginine in plasma, fasted male Sprague Dawley rats, single oral dose equivalent to 500 mg L-Arginine/kg b.w., read-out: Cmax
[14] = rat, 500 mg/kg, arginine in plasma, fasted male Sprague Dawley rats, single oral dose equivalent to 500 mg L-Arginine/kg b.w., read-out: Tmax
[15] = plasma arginine, rat, oral, 500 mg/kg L-Arginine equivalent

## N=C(N)NCCC[C@H](N)C(=O)O [L-Arginine Base, L-Arginine]
[1]; [11]
  AUC% extrap: 8.195 ± 5.9280%
[1]; [12]
  AUC(0-inf): 486 ± 114 µg·h/mL
  AUC(0-t): 445 ± 106 µg·h/mL
  MRT last: 1.66 ± 0.34 h
  half-life: 1.41 ± 0.51 h
[1]; [13]
  Cmax: 202 ± 54.3 µg/mL
[1]; [14]
  Tmax: 0.65 ± 0.335 h
[2]
  amount that induces a significant vasodilatory response: ca. 5 grams

## Cl.N=C(N)NCCC[C@H](N)C(=O)O [L-Arginine HCl, L-Arginine hydrochloride]
[1]; [11]
  AUC% extrap: 27.645 ± 23.5890%
[1]; [12]
  AUC(0-inf): 442 ± 122 µg·h/mL
  AUC(0-t): 306 ± 92.7 µg·h/mL
  MRT last: 2.48 ± 0.368 h
  half-life: 3.08 ± 2.08 h
[1]; [13]
  Cmax: 94.7 ± 26.2 µg/mL
[1]; [14]
  Tmax: 1.1 ± 0.548 h
[2]
  amount that induces a significant vasodilatory response: ca. 5 grams

## N=C(N)NCCC[C@H](N)C(=O)O [arginine, L-arginine]
[3]; 30 elderly patients
  hydroxyproline and protein accumulation at the wound site vs non-supplemented controls: significantly greater
[3]
  IGF-1: elevated
  lymphocyte response: elevated

## O=[Si]=O [silica]
[4]
  closing and healing of wounds: effective at helping to close and heal wounds

## arginine silicate inositol [ASI]
[1]; [11]
  AUC% extrap: 16.987 ± 10.5790%
  AUCinf: 1499.898 ± 233.6230 µg·h/mL
  AUClast: 1248.990 ± 276.1000 µg·h/mL
  Cmax: 474.300 ± 169.1040 µg/mL
  MRTlast: 2.220 ± 0.2450 h
  T1/2: 2.159 ± 0.8280 h
  Tmax: 1.100 ± 0.5480 h
[1]; [15]
  AUCinf increase compared with Arginine base: 3 fold
  AUCinf increase over Arginine base in plasma: 209%
  Cmax increase compared with Arginine base: 2.35 fold
  Cmax increase over Arginine base in plasma: 135%
[5]; 1,500 mg daily for 14 days, 10 subjects
  adverse events related to the study medication: No adverse events related to the study medication
[5]; in 30 minutes, single dose 1,500 mg, human
  increase of plasma arginine concentration relative to baseline: greater than 30%
[5]; plasma arginine, 10 healthy males, 1,500 mg oral, Day 1
  Arginine absorption: Tmax Day 1: 1.05 ± 0.50 h
[5]; serum silicon, 10 healthy males, 1,500 mg oral, Day 1
  Silicon absorption: Tmax Day 1: 2.15 ± 1.75 h
[5]; single dose, human
  duration of significantly raised blood arginine and silicon levels: up to 3 hours
[6]; 1,500 mg/day for two weeks, Visit 2 vs Visit 3
  change in NO levels after 14 days of administration: significant increase
[6]; Visit 3 treatment after 1 hr
  subjects with NO level Depleted: 3 subjects
  subjects with NO level Low: 4 subjects
  subjects with NO level Normal: 3 subjects
[6]; salivary NO strips, 10 subjects, 14 days daily dosing
  subjects who were Depleted at Visit 2 and increased to Low at Visit 3: Six
[7]
  effect on blood proteins related to vasodilation and heart health: significantly enhances
[8]
  rate of epithelialization of the skin defect vs placebo: significantly enhanced
  rate of wound healing vs placebo: increased
  serum insulin-like growth factor-1 (IGF-1) levels: significantly elevated
  wound catheter hydroxyproline accumulation and total protein content vs placebo: increase
[9]
  wound healing of wounds treated with ASI-containing gel vs placebo hydrogel: more rapid improvement in wound healing
[10]
  cytokine markers of inflammation: decrease or improvement
  listed measurement parameters (e.g. NO levels): improve
[2]
  amount with which similar vasodilatory responses have been shown: 750 mg
